Data from ChEMBL document CHEMBL1128926, “The synthesis of a hematoregulatory agent based on HP-5B containing an effective, achiral cystine replacement” (1996).
Positions of bridges follow the written chain, without caps; N, C: chain ends. Non-standard residues stand in square brackets, D forms with d. Residues, ends and D or L forms follow the SMILES beside them. Chains are numbered I, II in the order given. pGlu = O=C1CC[C@@H](C(=O)O)N1

Experiment: Compound was evaluated for the production of HSF activity from C6.4 stromal cells using a murine CFU-GM assay.
Type: functional, Mus musculus
In the case of `NCCCC[C@H](NC(=O)CN(CCCCN(CC(=O)N[C@@H](CCCCN)C(=O)O)C(=O)[C@H](CC(=O)O)NC(=O)[C@H](CCC(=O)O)NC(=O)[C@@H]1CCC(=O)N1)C(=O)[C@H](CC(=O)O)NC(=O)[C@H](CCC(=O)O)NC(=O)[C@@H]1CCC(=O)N1)C(=O)O`, the “HSF activity x10e2” value was 21700 ml. With `NCCCC[C@H](NC(=O)[C@H](CSSC[C@H](NC(=O)[C@H](CC(=O)O)NC(=O)[C@H](CCC(=O)O)NC(=O)[C@@H]1CCC(=O)N1)C(=O)N[C@@H](CCCCN)C(=O)O)NC(=O)[C@H](CC(=O)O)NC(=O)[C@H](CCC(=O)O)NC(=O)[C@@H]1CCC(=O)N1)C(=O)O` (I: [pGlu]EDCK-OH / II: [pGlu]EDCK-OH; disulfide I:4-II:4) the “HSF activity x10e2” value was 700 ml. With `NCCCC[C@H](NC(=O)[C@H](CCCC[C@H](NC(=O)[C@H](CC(=O)O)NC(=O)[C@H](CCC(=O)O)NC(=O)[C@@H]1CCC(=O)N1)C(=O)N[C@@H](CCCCN)C(=O)O)NC(=O)[C@H](CC(=O)O)NC(=O)[C@H](CCC(=O)O)NC(=O)[C@@H]1CCC(=O)N1)C(=O)O` [GLASPIMOD] the “HSF activity x10e2” value was 14300 ml.
